ChEMBL document CHEMBL1201862, “PubChem BioAssay data set” (2004)
Activity calls are given as the source filed them. No rule for the calls is given here.

Columns and labels:
[1] = target: T1, High affinity choline transporter 1 (Homo sapiens, UniProt Q9GZV3); test: CHT inhibitors, dose response, cell-based, 10-point CRC, membrane potential dye (AID 588401); format: functional;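 also: membrane potential dye fluorescence of choline-evoked depolarization via CHT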
T1 sequence (Q9GZV3 whole entry): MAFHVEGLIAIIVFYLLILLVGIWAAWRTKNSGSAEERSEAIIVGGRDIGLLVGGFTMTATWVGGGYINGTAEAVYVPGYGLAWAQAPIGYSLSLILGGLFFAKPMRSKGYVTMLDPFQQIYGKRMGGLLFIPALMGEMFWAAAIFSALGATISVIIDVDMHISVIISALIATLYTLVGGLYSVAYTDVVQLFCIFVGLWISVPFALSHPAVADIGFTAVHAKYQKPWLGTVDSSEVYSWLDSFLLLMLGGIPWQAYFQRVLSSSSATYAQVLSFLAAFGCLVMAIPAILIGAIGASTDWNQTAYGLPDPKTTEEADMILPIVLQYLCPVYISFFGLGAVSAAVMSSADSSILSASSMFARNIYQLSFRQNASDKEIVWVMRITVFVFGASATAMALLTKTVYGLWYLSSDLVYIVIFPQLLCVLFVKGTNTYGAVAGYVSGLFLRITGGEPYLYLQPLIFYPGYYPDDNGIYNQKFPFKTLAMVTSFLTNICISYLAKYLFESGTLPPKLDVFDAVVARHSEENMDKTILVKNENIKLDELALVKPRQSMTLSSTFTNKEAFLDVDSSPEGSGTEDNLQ

[2] = target: T1, High affinity choline transporter 1; test: CHT inhibitors, dose response, cell-based, 5-point CRC, membrane potential dye (AID 504840); format: functional

With CC1=NOC(=O)/C1=C/c1ccc(O)c(Br)c1 the IC50 [1] was 3.98 µM (active) and the IC50 [2] was 4.77 µM (active).
